Experimental data as given in patent US8703787B2, “Methods of using ALK inhibitors” (IRM LLC, priority 2011, dated 2014).

How the values were obtained:
[1] = 4-wk GLP toxicology studies / exposure comparison; assay type: in vivo; settings: based on 4-wk GLP toxicology studies, predicted
NCI-H2228 cells = assay: In vitro cell growth and proliferation (luciferase readout); assay type: cell-based; settings: Homo sapiens, 72 h; NCI-H2228 with EML4-ALK, luciferase-expressing, 3 days incubation
Protocol: NCI-H2228 cells were obtained from the American Type Culture Collection (ATCC) (Manassa, USA) and modified by viral infection to stably express luciferase. For cell growth and proliferation assays, 2250 cells in 50 μL of RPMI media (Gibco, Carlsbad, Calif.) containing 10% fetal bovine serum (FBS) (Gibco, Carlsbad, Calif.) were plated into solid bottom, white 384-well plates (Corning, Acton, Mass.) using μ-Fill instrumentation (Bio-Tek). Plates were incubated 1 hour in a 37° C. tissue culture incubator prior to the addition of compound using MiniTrak instrumentation (Perkin-Elmer). 50 nL of a 1:3 dilution plate of compounds was added to the assay plates, resulting in final concentrations of 10000, 3333, 1111, 370, 123, 41, 14, 4.6, 1.5, 0.5 and 0.17 nM. After compound addition, plates were incubated for 3 days at 37° C. in a tissue culture incubator. At day 3, plates were assayed for cell growth and proliferation by means of measuring luciferase activity in each individual well. In detail, 25 μL of BRIGHT-GLO® (Promega, Madison, Wis.) or BRITELITE™ (PerkinElmer, Waltham, Mass.) was added to each well. After 10 minutes of incubation at room temperature, plates were read using either an Analyst-GT or an Envision plate reader (Molecular Devices, Sunnyvale, Calif.). […]

[2] = test system: crizotinib resistant NCI-H2228 tumors; assay: Anti-tumor activity in crizotinib resistant NCI-H2228 xenograft tumors; assay type: in vivo, mouse
Protocol: The mouse xenograft tumors derived from NCI-H2228 were treated with crizotinib continuously at 50 mg/kg for 9 days, then 75 mg/kg for 9 days and then 100 mg/kg for 33 days. Alternatively, after xenograft tumors derived from NCI-H2228 were treated with crizotinib for 14 days at 100 mg/kg, the treatment with crizotinib was stopped for a few days until tumors re-grew. Once tumors re-grew, animals were treated with crizotinib at 100 mg/kg until tumors became resistant to crizotinib treatment. Tumors from individual animal were harvested when they became resistant to crizotinib. A few such resistant tumors were randomly selected for further studies as described below. Each resistant tumor were cut into small pieces at harvest and implanted into 5 animals; when tumor size was big enough in the 5 animals, the tumors were harvested and then implanted into 25 animals for compound testing. A piece of harvested tumors was also used for RNA extraction and subsequently sequencing of EML4-ALK transcript.

NCI-H2228 tumors = assay: Subcutaneous xenograft tumor model derived from NCI-H2228 cells; assay type: in vivo, mouse
Text: The day of implantation, NCI-H2228 cells were harvested with 0.05% Trypsin/EDTA and resuspended in a mixture of RPMI 1640 serum-free medium and matrigel (BD Biosciences #354234, La Jolla, Calif.) at a ratio of 1:1. Five million cells were subcutaneously implanted into the right hind flank of SCID beige mouse. When the tumor size reached a volume of 300-400 mm3, the tumors were harvested and were cut into smaller pieces of 1-2 mm3 in culture medium for passage implanting subcutaneously. After the tumors were consecutively passaged three times in SCID beige mice, the tumors were considered as stock tumors for study implantation. The tumor pieces were kept in a mixture of RPMI1640 serum-free medium and matrigel at a ratio of 1:1 on wet ice for implanting in SCID beige mice. Implantation in […] mice: 2-3 pieces of the tumor with matrigel mixture were subcutaneously implanted into the right flank of the mice. After implantation, the tumors were callipered 3 times per week once tumors became palpable.
SCID beige mice bearing the H2228 tumors were randomized into 5 groups (n=4 mice per group) with an average tumor volume of 85±35 mm3. The test compound was administered by oral gavage. Its exposure in the tumor bearing female SCID beige mice was evaluated on day 14. Tumor growth was calculated by % T/C as follows: % T/C=(ΔT/ΔC)×100, where ΔT>0; or % T/C=(ΔT/ΔTI)×100, where ΔT<0. Changes in tumor volume (Δ volumes) for each treated (T) and control (C) group were calculated for each day tumors were measured by subtracting the median tumor volume on the day of first treatment (staging day) from the median tumor volume on the specified observation day.

Structure (SMILES)	exposure associated with 50 mg/kg in mouse relative to exposure at the MTD in humans [1]	IC50 (NCI-H2228 cells)	anti-tumor growth activity in crizotinib resistant NCI-H2228 ([2]; FIG. 2)	activity compared with crizotinib at 100 mg/kg ([2]; other crizotinib resistant NCI-H2228 tumors, FIG. 3)	animal body weight loss (NCI-H2228 tumors; dosed orally at 25 mg/kg once a day for 2 weeks)	anti-tumor activity (tumor regression) (NCI-H2228 tumors; dosed orally at 25 mg/kg once a day for 2 weeks, FIG. 1)	tolerability (NCI-H2228 tumors; mouse, in vivo, po, 25 mg/kg)
Cc1cc(Nc2ncc(Cl)c(Nc3ccccc3S(=O)(=O)C(C)C)n2)c(OC(C)C)cc1C1CCNCC1 [Compound 1, 5-chloro-N2-(2-isopropoxy-5-methyl-4-(piperidin-4-yl)phenyl)-N4-[2-(propane-2-sulfonyl)-phenyl]-pyrimidine-2,4-diamine]	below the exposure at the MTD in humans	11 nM	significant anti-tumor growth activity	better activity than crizotinib	not observed	complete tumor regression	well tolerated
CC(C)Oc1cc2c(cc1Nc1ncc(Cl)c(Nc3ccccc3S(=O)(=O)C(C)C)n1)C(=O)N(C1CCN(C)CC1)C2 [Compound 6, 6-{5-Chloro-4-[2-(propane-2-sulfonyl)-phenylamino]-pyrimidin-2-ylamino}-5-isopropoxy-2-(1-methyl-piperidin-4-yl)-2,3-dihydro-isoindol-1-one]		16 nM					
